This passage reports IC50 results from patent US20070135431A1, “INHIBITORS OF HISTONE DEACETYLASE FOR THE TREATMENT OF DISEASE” (KALYPSYS, INC, priority 2005, published 2007).

For assay [1], the system named is HDAC in cells. In words: Cellular HDAC inhibition (cellular histone hyperacetylation / cytotoxicity assays; Table 1 only says Cellular IC50). Conditions: transformed cell lines (e.g. HeLa, A549, MCF-7); cell line not given. The class given is cell-based. The method, then:
2) Cellular Histone Hyperacetylation Assays:
These two secondary assays evaluate a compound's ability to inhibit HDAC in cells by measuring cellular histone acetylation levels. The cytoblot facilitates quantitative EC50 information for cellular HDAC inhibition. Transformed cell lines (e.g. HeLa, A549, MCF-7) are cultured under standard media and culture conditions prior to plating.
Cells (approx. 2,500/well) are allowed to adhere 10-24 hours to wells of a 384-well Greiner PS assay plate in media containing 1-5% serum. Cells are treated with appropriate compound and specific concentrations for 0 to 24 hours. Cells are washed once with PBS (60 μL) and then fixed (95% ethanol, 5% acetic acid or 2% PFA) for 1 minute at RT (30 μL). Cells are blocked with 1% BSA for 1 hour and washed and stained with antibody (e.g. anti-Acetylated Histone H3, Upstate Biotechnology), followed by washing and incubation with an appropriate secondary antibody conjugated to HRP or fluorophore. For luminescence assays, signal is generated using Luminol substrate (Santa Cruz Biotechnology) and detected using an Aquest plate reader (Molecular Devices).
3) Differential Cytotoxicity Assay:
HDAC inhibitors display differential cytotoxicity toward certain transformed cell lines. Cells are cultured according to standard ATCC recommended conditions that are appropriate to each cell type. Compounds were tested for their ability to kill different cell types (normal and transformed) using the ATPlite luminescence ATP detection assay system (Perkin Elmer). Assays are run in either 384-well or 1536-well Greiner PS plates. Cells (30 μL or 5 μL, respectively) are dispensed using either multichannel pipette for 384-well plates, or proprietary Kalypsys bulk liquid dispenser for 1536-well plates. Compounds added using proprietary pin-transfer device (500 nL or 5 nL) and incubated 5 to 30 hours prior to analysis. Luminescence is measured using Aquest plate reader (Molecular Devices).

In assay [2] the test system is HDAC. In words: In vitro HDAC-inhibition assay (Fluor de Lys fluorescent activity assay). The class given is biochemical. Conditions: HDAC enzyme source (e.g. nuclear extract or immunopurified HDAC complexes), Fluor de Lys substrate, 30 minutes RT. Here is the method: 1) In vitro HDAC-inhibition Assay:
This assay measures a compound's ability to inhibit acetyl-lysine deacetylation in vitro and was used as both a primary screening method as well as for IC50 determinations of confirmed inhibitors. The assay is performed in vitro using an HDAC enzyme source (e.g. partially purified nuclear extract or immunopurified HDAC complexes) and a proprietary fluorescent substrate/developer system (HDAC Quantizyme Fluor de Lys Fluorescent Activity Assay, BIOMOL). The assay is run in 1,536-well Greiner white-bottom plates using the following volumes and order of addition: • Step 1: Enzyme (2.5 μL) source added to plate (from refrigerated container) • Step 2: Compounds (50 nL) added with pin transfer device • Step 3: Fluor de Lys (2.5 μL) substrate added, incubate at RT, 30 minutes • Step 4: Developer (5 μL) solution is added (containing TSA), to stop reaction • Step 5: Plate Reader—data collection
The deacetylated fluorophore is excited with 360 nm light and the emitted light (460 nm) is detected on an automated fluorometric plate reader (Aquest, Molecular Devices).

Consider `CC(=O)SCC(=O)c1ccc(NS(=O)(=O)c2ccc(Oc3ccccc3C)cc2)cc1` [Example 01, Thioacetic acid S-{2-oxo-2-[4-(4-o-tolyloxy-benzenesulfonylamino)-phenyl]-ethyl} ester], for which the IC50 in assay [1] and in assay [2] was at most 1000 nM throughout.
Take `CC(=O)SCC(=O)c1ccc(NS(=O)(=O)c2ccc(OCCCc3ccccn3)cc2)nc1` [Example 28, Thioacetic acid S-(2-oxo-2-{6-[4-(3-pyridin-2-yl-propoxy)-benzenesulfonylamino]-pyridin-3-yl}-ethyl) ester]: the IC50 in assay [1] and in assay [2] was at most 1000 nM in each case.
As to `CC(=O)SCC(=O)c1ccc(NS(=O)(=O)c2ccc(OCCCN3CCCCC3)cc2)nc1` [Example 25, Thioacetic acid S-(2-oxo-2-{6-[4-(3-piperidin-1-yl-propoxy)-benzenesulfonylamino]-pyridin-3-yl}-ethyl) ester], the half-maximal inhibitory concentration (IC50) in assay [1] and in assay [2] was at most 1000 nM in each case.
`CC(=O)SCC(=O)c1ccc(NS(=O)(=O)c2ccc(S(=O)(=O)N3CCOCC3)cc2)cc1` [Example 05, Thioacetic acid S-(2-{4-[4-(morpholine-4-sulfonyl)-benzenesulfonylamino]-phenyl}-2-oxo-ethyl) ester]: the 50% inhibitory concentration (IC50) in assay [1] and in assay [2] was at most 1000 nM in each case.
For `CC(=O)SCC(=O)c1ccc(NS(=O)(=O)c2ccc(Oc3ccc(Cl)cc3)cc2)cc1` [Example 04, Thioacetic acid S-(2-{4-[4-(4-chloro-phenoxy)-benzenesulfonylamino]-phenyl}-2-oxo-ethyl) ester], the 50% inhibitory concentration (IC50) in assay [1] and in assay [2] was at most 1000 nM in each case.
Regarding `CC(=O)SCC(=O)c1ccc(NS(=O)(=O)c2ccc(OCCN3CCOCC3)cc2)cc1` [Example 20, Thioacetic acid S-(2-{4-[4-(2-morpholin-4-yl-ethoxy)-benzenesulfonylamino]-phenyl}-2-oxo-ethyl) ester], the IC50 in assay [1] and in assay [2] was at most 1000 nM in each case.
For `CC(=O)SCC(=O)c1ccc(NS(=O)(=O)c2ccc(OCc3ccccn3)cc2)nc1` [Example 23, Thioacetic acid S-(2-oxo-2-{6-[4-(pyridin-2-ylmethoxy)-benzenesulfonylamino]-pyridin-3-yl}-ethyl) ester], the IC50 in assay [1] and in assay [2] was at most 1000 nM throughout.
As to `CC(=O)SCC(=O)c1ccc(NS(=O)(=O)c2ccc(OC3CCCN(C)C3)cc2)nc1` (stereo not drawn) [Example 30, Thioacetic acid S-(2-{6-[4-(1-methyl-piperidin-3-yloxy)-benzenesulfonylamino]-pyridin-3-yl}-2-oxo-ethyl) ester], the IC50 in assay [1] and in assay [2] was at most 1000 nM each time.
In the case of `CC(=O)SCC(=O)c1ccc(NS(=O)(=O)c2ccc(OCCCN3CCOCC3)cc2)nc1` [Example 11, Thioacetic acid S-(2-{6-[4-(3-morpholin-4-yl-propoxy)-benzenesulfonylamino]-pyridin-3-yl}-2-oxo-ethyl) ester], the IC50 in assay [1] and in assay [2] was at most 1000 nM each time.
Turning to `CC(=O)SCC(=O)c1ccc(NS(=O)(=O)c2ccc(OCCN3CCCCC3)cc2)cc1` [Example 19, Thioacetic acid S-(2-oxo-2-{4-[4-(2-piperidin-1-yl-ethoxy)-benzenesulfonylamino]-phenyl}-ethyl) ester], the IC50 in assay [1] and in assay [2] was at most 1000 nM throughout.
For `CC(=O)SCC(=O)c1ccc(NS(=O)(=O)c2ccc(OCCCN3CCCC3)cc2)nc1` [Example 33, Thioacetic acid S-(2-oxo-2-{6-[4-(3-pyrrolidin-1-yl-propoxy)-benzenesulfonylamino]-pyridin-3-yl}-ethyl) ester], the IC50 in assay [1] and in assay [2] was at most 1000 nM each time.
Consider `CC(=O)SCC(=O)c1ccc(NS(=O)(=O)c2ccc(OC3CCN(C)CC3)cc2)nc1` [Example 29, Thioacetic acid S-(2-{6-[4-(1-methyl-piperidin-4-yloxy)-benzenesulfonylamino]-pyridin-3-yl}-2-oxo-ethyl) ester], for which the IC50 in assay [1] and in assay [2] was at most 1000 nM each time.

One may read the IC50 as the concentration that inhibits the measured activity by half. High values mean weaker potency, low ones greater potency.
